Source: US12448383B2, “Compounds and methods for treatment of viral infections” (priority 2022, dated 2025)
Where two headings read alike, the source gives them in different places.

Assays:
[1] = CC50 MT4 cytotoxicity (Cell-Titer Glo); type: cell-based; conditions: human
In short: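 Uninfected MT-4 and HEp-2 cells cultured 4-5 days at 37° C with 3-fold serially diluted compound (15 nM to 100,000 nM). Viability read by Cell-Titer Glo luminescence; untreated and 2 μM puromycin wells set 100% and 0%. CC50 from non-linear regression as concentration reducing viability by 50%.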

[2] = test system: Respiratory syncytial virus recombinant with luciferase (RSV-Luc5) in Normal Human Bronchial Epithelial (NHBE) cells; assay: microbe, parasite or virus in culture; type: cell-based
[3] = test system: SARS Coronavirus 2 recombinant with NanoLuc (SARS-CoV2-NLuc) in A549-hACE2 cells; assay: organism not typed; type: cell-based
[4] = Thermodynamic solubility in pH7 buffered solution; conditions: 50 mM phosphate buffer pH7, 150 mM NaCl, ambient temperature, 24 hours
Experimental: Solubility was determined at ambient temperature in a 50 mM phosphate buffered pH7 solution with 150 mM NaCl (to achieve isotonicity). Solids were added to the buffered solution in 1.5-mL Eppendorf tubes, vortexed for 1 minute, then agitated for 24 hours in an Eppendorf ThermoMixer C. […] Supernatants were diluted to a volume of 1 mL with 30:70 v/v acetonitrile:water. All diluted supernatants were analyzed by UPLC using a Waters Acquity UPLC with a PDA UV detector.

[5] = Stability in pH7 buffered solution; type: physicochemical; conditions: pH7 phosphate buffer, 40° C., Table N2
Experimental: (§1) Example N: Stability in p112 and p117 Buffered Solutions
(§2) The aqueous stability of compounds over a time of 24 hours at 40° C. was assessed. Stability was determined in 50 mM phosphate buffered solutions at both pH2 and pH7, with 150 mM NaCl (to achieve isotonicity). 3-5 mg of solid compounds were added to 7 mL scintillation vials. Acetonitrile was added to each vial to produce a 1 mg/mL stock solution. Stock solutions were diluted to 50 μg/mL in either pH2 or pH7 phosphate buffer, to a volume of 1 mL. For each compound and pH condition, 50 μg/mL samples were prepped in duplicate. One sample was placed on the UPLC tray at 40° C. for analysis, and the second sample was placed in a 40° C. oven for storage. Sample preps for each compound were offset by 40 minutes to account for run time on UPLC.
(§3) Concentration timepoints were measured at 0, 3, 6, 9, and 12 hrs. After 24 hrs, samples in the 40° C. oven were removed and analyzed by UPLC.
(§4) In FIG. 2, % AN stands for % area normalized. That is, % AN is the area of the compound peak relative to the sum of areas of all the peaks in the UPLC chromatogram. For example, if there were two peaks, compound peak with an area of 9 and another peak with an area of 1, then the % AN of the compound peak would be 90%.

[6] = test system: Caco-2 cells (clone C2BBe1); assay: CACO-2 permeability; type: in vitro ADME; parameters: unit not given here; conditions: for DM Caco2 A to B: apical to basolateral, donor pH 6.5, receiver pH 7.4; for DM Caco2 B to A: basolateral to apical
In short: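 Caco-2 monolayers grown 21 days on collagen-coated transwells and checked for integrity by TEER. Donor buffer was HBSS/HEPES/glucose pH 6.5 with 200 μM BNPP; receiver was pH 7.4 with BSA. Compounds were dosed apically or basolaterally for A-to-B and B-to-A transport, with receiver sampling at 1 and 2 h, LC-MS/MS analysis and percent recovery.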

[7] = Stability in pH2 buffered solution; type: physicochemical; conditions: pH2 phosphate buffer, 40° C., 24 h; Table N2
Experimental: as §1, §2, §3, §4

Plasma stability = type: in vitro ADME; parameters: unit not given here; conditions: 37° C., 2 μM substrate
In short: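 Reaction mixture was sampled at 0.05, 0.5, 1, 2, 3 and 4 hr into quench solution containing internal standard, then centrifuged and diluted with water. Remaining analyte was measured by LC-MS on a Q-Exactive using a formic acid/acetonitrile gradient, with 5 ppm mass tolerance.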

[8] = GI S9 stability - no PMSF; type: in vitro ADME; parameters: GIS9-HUMAN-NoPMSF T1/2: unit: min; conditions: human intestinal S9, PMSF-free; for half-life at 2 µM: pH 7.4, read-out: GIS9-HUMAN-NoPMSF T1/2
In short: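 Compounds were incubated at 2 μM with PMSF-free intestinal S9 (1 mg/mL protein) in 100 mM PBS, pH 7.4, sampling at 6 time points over 120 min. Parent disappearance and formation of the nucleoside metabolite Reference Compound A were quantified by LC-MS (Q-Exactive) using analyte/internal standard peak area ratios.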

[9] = test system: Respiratory syncytial virus recombinant with luciferase (RSV-Luc5) in HEp-2 cells; assay: microbe, parasite or virus in culture; type: cell-based; conditions: human respiratory syncytial virus, HEp-2, 72 h, read-out: RSV Hep2 EC50

SMILES | CC50 [1] [µM] | EC50 ([2]; 72 h, read-out: RSV NHBE EC50) [µM] | EC50 ([3]; 48 h; read-out: SARS-CoV2 EC50) [µM] | Sol pH 7 [4] | pH 7 Stability 24 h % AN [5] [% AN] | DM Caco2 A to B [6] | DM Caco2 B to A [6] | pH 2 Stability 24 h % AN [7] [% AN] | STA Human Plasma 37 (Plasma stability) | half-life at 2 µM [8] [min] | GIS9-HUMAN-NoPMSF T1/2 [8] | EC50 [9] [µM] | EC50 ([2]; read-out: EC50 RSVFluc-NHBE 384 V2) [µM] | EC50 ([3]; A549; read-out: EC50 SARS CoV2 NanoLuc A549 384) [µM] | logD (physchem) | CC50 ([1]; uninfected MT-4 cells, 4-5 days, read-out: MT4 CC50) [µM] | EC50 ([3]; 48 h, read-out: SARS-CoV2 EC50) [µM]
CC(C)OC(=O)Nc1ncnn2c([C@]3(C#N)O[C@H](COC(=O)OC(C)(C)C)[C@@H](O)[C@H]3O)ccc12 [Compound 63, isopropyl (7-((2R,3R,4S,5R)-5-(((tert-butoxycarbonyl)oxy)methyl)-2-cyano-3,4-dihydroxytetrahydrofuran-2-yl)pyrrolo[2,1-f][1,2,4]triazin-4-yl)carbamate] | > 50 | 41.6 | > 50 | 0.82 | 0 | 1.18 | 12.46 | 3 | 1584 | 181 | – | – | – | – | – | – | –
CC(C)(OC(=O)OC[C@H]1O[C@@](C#N)(c2ccc3c(N)ncnn23)[C@H](O)[C@@H]1O)C(F)F [Compound 76, ((2R,3S,4R,5R)-5-(4-aminopyrrolo[2,1-f][1,2,4]triazin-7-yl)-5-cyano-3,4-dihydroxytetrahydrofuran-2-yl)methyl (1,1-difluoro-2-methylpropan-2-yl) carbonate] | > 50 | 3.4 | > 50 | 0.37 | 91 | 2.13 | 12.17 | 92 | 1584 | 38.9 | – | – | – | – | – | – | –
CC(C)(OC(=O)OC[C@H]1O[C@@](C#N)(c2ccc3c(N)ncnn23)[C@H](O)[C@@H]1O)C(F)(F)F [Compound 67, ((2R,3S,4R,5R)-5-(4-aminopyrrolo[2,1-f][1,2,4]triazin-7-yl)-5-cyano-3,4-dihydroxytetrahydrofuran-2-yl)methyl (1,1,1-trifluoro-2-methylpropan-2-yl) carbonate] | > 50 | 1.52 | 12.8 | – | 91 | 0.99 | 9.76 | 95 | 1177.1 | 10.5 | – | – | – | – | – | – | –
CCC1O[C@H]2[C@@H](O1)[C@](C#N)(c1ccc3c(N)ncnn13)O[C@@H]2COC(=O)OC(C)C (stereo partly drawn) [Compound 133, ((3aR,4R,6R,6aR)-6-(4-aminopyrrolo[2,1-f][1,2,4]triazin-7-yl)-6-cyano-2-ethyltetrahydrofuro[3,4-d][1,3]dioxol-4-yl)methyl isopropyl carbonate] | > 50 | > 50 | > 50 | 0.24 | 98 | 17.25 | 16.82 | 95 | 73.357 | 0.623 | – | – | – | – | – | – | –
COCC(C)(C)OC(=O)OC[C@H]1O[C@@](C#N)(c2ccc3c(N)ncnn23)[C@H](O)[C@@H]1O [Compound 96, ((2R,3S,4R,5R)-5-(4-aminopyrrolo[2,1-f][1,2,4]triazin-7-yl)-5-cyano-3,4-dihydroxytetrahydrofuran-2-yl)methyl (1-methoxy-2-methylpropan-2-yl) carbonate] | > 50 | > 50 | – | 1.25 | 95 | 0.09 | 4.05 | 96 | 1584 | – | 789 | – | – | – | – | – | –
CCCC(=O)Nc1ncnn2c([C@]3(C#N)O[C@H](COC(=O)OCC(C)C)[C@@H](O)[C@H]3O)ccc12 [Compound 21, [(2R,3S,4R,5R)-5-[4-(butanoylamino)pyrrolo[2,1-f][1,2,4]triazin-7-yl]-5-cyano-3,4-dihydroxy-tetrahydrofuran-2-yl]methyl isobutyl carbonate] | > 50 | 2.25 | 12.9 | – | 92 | 1.36 | 8.33 | 0 | – | – | – | 2.38 | – | – | – | – | –
CC(C)OC(=O)[C@H]([C@@H](C)OC(=O)OC[C@H]1O[C@@](C#N)(c2ccc3c(N)ncnn23)[C@H](O)[C@@H]1O)N(C)C [Compound 145, isopropyl (2S,3R)-3-[[(2R,3S,4R,5R)-5-(4-aminopyrrolo[2,1-f][1,2,4]triazin-7-yl)-5-cyano-3,4-dihydroxy-tetrahydrofuran-2-yl]methoxycarbonyloxy]-2-(dimethylamino)butanoate] | > 50 | – | – | – | 0 | 0.2 | 8.475 | 93 | 299.49 | 32.8 | – | – | 3.15 | 3.48 | 1.85 | – | –
CCC(C)(C)OC(=O)OC[C@H]1O[C@@](C#N)(c2ccc3c(N)ncnn23)[C@H](OC(=O)OC(C)(C)CC)[C@@H]1OC(=O)OC(C)(C)CC [Compound 60, (2R,3R,4R,5R)-2-(4-aminopyrrolo[2,1-f][1,2,4]triazin-7-yl)-2-cyano-5-((((tert-pentyloxy)carbonyl)oxy)methyl)tetrahydrofuran-3,4-diyl di-tert-pentyl bis(carbonate)] | – | 1.58 | – | – | 0 | 0.12 | 0.32 | 0 | 1584 | 44.9 | – | – | – | – | – | 32.9 | 2.69
CC(C)OC(=O)OC[C@H]1O[C@@](C#N)(c2ccc3c(N)ncnn23)[C@@H]2OC(=O)O[C@@H]21 [Compound 66, ((3aR,4R,6R,6aR)-6-(4-aminopyrrolo[2,1-f][1,2,4]triazin-7-yl)-6-cyano-2-oxotetrahydrofuro[3,4-d][1,3]dioxol-4-yl)methyl isopropyl carbonate] | > 50 | 0.499 | 3.21 | – | 0 | – | – | 2 | 24.2 | 0.491 | – | 0.847 | – | – | – | – | –
CCOC(=O)[C@H](C)OC(=O)OC[C@H]1O[C@@](C#N)(c2ccc3c(N)ncnn23)[C@H](O)[C@@H]1O [Compound 97, ethyl (S)-2-(((((2R,3S,4R,5R)-5-(4-aminopyrrolo[2,1-f][1,2,4]triazin-7-yl)-5-cyano-3,4-dihydroxytetrahydrofuran-2-yl)methoxy)carbonyl)oxy)propanoate] | – | 6.16 | – | 6.02 | 85 | 0.04 | 2.15 | 98 | 6.669 | 3.65 | – | – | – | – | – | – | –
